Read-outs that look alike come from different tables or passages of the source.
Tests used:
BCS classification = type: physicochemical
Description: The Biopharmaceutics Classification System (BCS) provides a well-established framework for assessing the biopharmaceutics risk of immediate release drug products, based on properties of the Active Pharmaceutical Ingredient (API) and drug product. The compounds are classified into one of four groups, according to their solubility and permeability properties. Compounds in BCS Class 1 (high solubility, high permeability) and BCS Class 3 (high solubility, low permeability) are eligible for biowaivers, i.e., the requirement for an in vivo bioequivalence study is waived if certain requirements are met. For the development of CRDS for these compounds, the BCS effectively acts as an accepted body of ‘prior knowledge’, as the ability of dissolution in simple aqueous buffers across the physiological pH range to ensure in vivo bioequivalence is already well established. This can form the basis of CRDS for BCS Class 1 and 3 compounds, unless additional data are generated to justify the further widening of these limits for a specific drug product.
During the experiments for continuous process improvements of JNJ-1, a new crystal form has been isolated from the drug substance crude crystallization step. The new form appeared to be the thermodynamically favoured form in the process conditions. […]

[1] = Solubility in biorelevant media; type: physicochemical
Description: (§1) In a first step, the physico-chemical characteristics of both API forms were compared in biorelevant media. Table 1 provides an overview of the solubility data and intrinsic dissolution properties. For both API forms, the compound is practically insoluble in water, irrespective of pH, but it undergoes substantial solubilization in the presence of bile. […] However, as the solubility of the newly isolated form is about 40% lower when compared to canagliflozin hemihydrate, the bioavailability in the fasted state conditions remains uncertain.

[2] = Intrinsic dissolution rate in biorelevant media; type: physicochemical
Description: as §1

[3] = Food effect (high-fat meal) on absorption; type: in vivo; details: clinically relevant dose strengths
Description: as §1
The integration of the biopharmaceutical parameters relevant for drug absorption in a more physiological context further expanded the risk assessment. For this, a PBBM model was developed and validated for JNJ-1 while using GastroPlus™ (version 8.5). Based on the available physicochemical properties, in vitro biopharmaceutical experimentation, biorelevant dissolution data, and clinical PK parameters, the model was able to simulate the in vivo observed clinical PK data.

[4] = design: method as in PMID 25182387; details: pH 4.5 and 6.8; cited from earlier work
[5] = virtual simulation, 120 mg tablets; cited from earlier work
[6] = design: method as in PMID 25182387; details: cited from earlier work
[7] = cited from earlier work

## Cc1ccc([C@@H]2O[C@H](CO)[C@@H](O)[C@H](O)[C@H]2O)cc1Cc1ccc(-c2ccc(F)cc2)s1.O [Registered crystal form, canagliflozin hemihydrate]
BCS classification
  BCS class: BCS class 4
[1]; FaSSIF
  Solubility FaSSIF: 540 µg/mL
[1]; FeSSIF
  Solubility FeSSIF: 5000 µg/mL
[1]; SGF
  Solubility SGF: 37 µg/mL
[2]; FaSSIF
  Intrinsic Dissolution Rate FaSSIF: 13.8 µg/min/cm^2
[2]; FeSSIF
  Intrinsic Dissolution Rate FeSSIF: 157.9 µg/min/cm^2
[2]; SGF
  Intrinsic Dissolution Rate SGF: 3.9 µg/min/cm^2
[3]
  Effect of a high-fat meal on absorption: absence of any effect

## Cc1ccc(-c2ncc(Cl)cc2-c2ccc(S(C)(=O)=O)cc2)cn1 [etoricoxib]
[4]
  F2 similarity test of dissolution profiles between two sites: failed
[5]
  Predicted AUC0-120 hr and Cmax bioequivalence of two sites formulations: bioequivalent
[6]
  BCS class: BCS II
[7]
  Bioequivalence of formulations from the two sites, clinical study: bioequivalent
